Results: ChEMBL document CHEMBL1150954, “Isolation and synthesis of an alpha-malamic acid derivative from Justicia ghiesbreghtiana” (J Nat Prod, 1998)
Activity calls are given as the source filed them. The calls are words filed in the database; no cut-off is given here.

Test system: Mycobacterium tuberculosis
Assay: Antibacterial activity against Mycobacterium tuberculosis
Format: functional, organism-based

COc1ccc(NC(=O)[C@@H](O)CC(=O)O)cc1OC
Activity: inactive
